From patent publication US9481654B2, “Compositions and methods for inhibition of the JAK pathway” (Rigel Pharmaceuticals, Inc., priority 2006, dated 2016)

Each molecule was assayed on IFNγ induced ICAM-1 (CD54) up-regulation in A549 lung epithelial cells (JAK/Stat pathway) (assay: A549 Epithelial Line Stimulated with IFNγ (ICAM-1 surface expression, flow cytometry)). Conditions: Homo sapiens, A549, Table III Example 5.
Type: cell-based, human
Excerpt: The activity of the compounds of the invention may additionally be characterized by assaying the effect of the 2,4-pyrimidinediamine compounds described herein on A549 lung epithelial cells and U937 cells. A549 lung epithelial cells and U937 cells up-regulate ICAM-1 (CD54) surface expression in response to a variety of different stimuli. Therefore, using ICAM-1 expression as readout, test compound effects on different signaling pathways can be assessed in the same cell type. Stimulation with IL-1β through the IL-1β receptor activates the TRAF6/NFκB pathway resulting in up-regulation of ICAM-1. IFNγ induces ICAM-1 up-regulation through activation of the JAK1/JAK2 pathway. The up-regulation of ICAM-1 can be quantified by flow cytometry across a compound dose curve and EC50 values are calculated. Exemplary assays of this type are described in greater detail in Examples 5 and 6.
A549 lung epithelial cells up-regulate ICAM-1 (CD54) surface expression in response to a variety of different stimuli. Therefore, using ICAM-1 expression as readout, compound effects on different signaling pathways can be assessed in the same cell type. IFNγ up-regulates ICAM-1 through activation of the JAK/Stat pathway. In this example, the up-regulation of ICAM-1 by IFNγ was assessed.
The A549 lung epithelial carcinoma cell line originated from the American Type Culture Collection. Routine culturing was with F12K media (Mediatech Inc., Lenexa, Kans., Cat. No. 10-025-CV) with 10% fetal bovine serum, 100 I.U. penicillin and […] streptomycin (complete F12k media). Cells were incubated in a humidified atmosphere of 5% CO2 at 37° C. Prior to use in the assay, A549 cells were washed with PBS and trypsinized (Mediatech Inc., Cat. No. 25-052-CI) to lift the cells. The trypsin cell suspension was neutralized with complete F12K media and centrifuged to pellet the cells. The cell pellet was resuspended in complete F12K media at a concentration of 2.0×10^5/mL. Cells were seeded at 20,000 per well, 100 μL total volume, in a flat bottom tissue culture plate and allowed to adhere overnight.
On day two, A549 cells were pre-incubated with a 2,4-pyrimidinediamine test compound or DMSO (control) (Sigma-Aldrich, St. Louis, Mo., Catalog No. D2650) for 1 hour. The cells were then stimulated with IFNγ (75 ng/mL) (Peprotech Inc., Rocky Hill, N.J., Cat. No. 300-02) and allowed to incubate for 24 hours. The final test compound dose range was 30 μM to 14 nM in 200 μL F12K media containing 5% FBS, 0.3% DMSO.
On day three, the cell media was removed and the cells were washed with 200 μL PBS (phosphate buffered saline). Each well was trypsinized to dissociate the cells, then neutralized by addition of 200 μL complete F12K media. Cells were pelleted and stained with an APC conjugated mouse anti-human ICAM-1 (CD54) (BD Pharmingen, San Diego, Calif., Catalog #559771) antibody for 20 minutes at 4° C. Cells were washed with ice cold FACS buffer (PBS+2% FBS) and surface ICAM-1 expression was analyzed by flow cytometry. Detection was performed using a BD LSR I System Flow Cytometer, purchased from BD Biosciences of San Jose, Calif. Events were gated for live scatter and the geometric mean was calculated (Becton-Dickinson CellQuest software version 3.3, Franklin Lakes, N.J.). Geometric means were plotted against the compound concentration to generate a dose response curve.

SMILES | IC50 [µM]
C#CCNS(=O)(=O)Cc1ccc(Nc2nc(Nc3cccc(S(N)(=O)=O)c3)ncc2F)cc1 [Compound I-4, N2-(3-Aminosulfonylphenyl)-5-fluoro-N4-[4-(prop-2-ynylaminosulfonylmethyl)phenyl]-2,4-pyrimidinediamine] | 18.2
C#CCNS(=O)(=O)Cc1ccc(Nc2nc(Nc3ccc(C)c(S(N)(=O)=O)c3)ncc2F)cc1 [Compound I-5, N2-(3-Aminosulfonyl-4-methylphenyl)-5-fluoro-N4-[4-(prop-2-ynylaminosulfonylmethyl)phenyl]-2,4-pyrimidinediamine] | 56.6

Same assay, conditions: Table III Example 5

SMILES | IC50 [µM]
CCS(=O)(=O)NCc1ccc(Nc2nc(Nc3ccc(C)c(S(N)(=O)=O)c3)ncc2F)cc1 [Compound I-10, N2-(3-aminosulfonyl-4-methyl)phenyl-N4-(4-ethylsulfonylaminomethyl)phenyl-5-fluoro-2,4-pyrimidinediamine] | 29.5
CCS(=O)(=O)NCc1cccc(Nc2nc(Nc3cccc(S(N)(=O)=O)c3)ncc2F)c1 [Compound I-12, N2-(3-aminosulfonyl)phenyl-N4-(3-ethylsulfonylaminomethyl)phenyl-5-fluoro-2,4-pyrimidinediamine] | 4.57
CCS(=O)(=O)NCc1cccc(Nc2nc(Nc3ccc(C)c(S(N)(=O)=O)c3)ncc2F)c1 [Compound I-13, N2-(3-aminosulfonyl-4-methyl)phenyl-N4-(3-ethylsulfonylaminomethyl)phenyl-5-fluoro-2,4-pyrimidinediamine] | 3.63
CCS(=O)(=O)NCCc1ccc(Nc2nc(Nc3ccc(C)c(S(N)(=O)=O)c3)ncc2F)cc1 [Compound I-16, N2-(3-aminosulfonyl-4-methyl)phenyl-N4-[4-(2-ethylsulfonylamino)ethyl]phenyl-5-fluoro-2,4-pyrimidinediamine] | 9.01
CCS(=O)(=O)NCc1ccc(Nc2nc(Nc3cccc(S(N)(=O)=O)c3)ncc2C)cc1 [Compound I-21, N2-(3-aminosulfonyl)phenyl-N4-(4-ethylsulfonylaminomethyl)phenyl-5-methyl-2,4-pyrimidinediamine] | 2.49
CCS(=O)(=O)N[C@@H](C)c1ccc(Nc2nc(Nc3cccc(S(N)(=O)=O)c3)ncc2F)cc1 [Compound I-27, N2-(3-aminosulfonyl)phenyl-N4-[4-(1S-ethylsulfonylamino)ethyl]phenyl-5-fluoro-2,4-pyrimidinediamine] | 5.84
CCS(=O)(=O)N[C@H](C)c1ccc(Nc2nc(Nc3cccc(S(N)(=O)=O)c3)ncc2F)cc1 [Compound I-30, N2-(3-aminosulfonyl)phenyl-N4-[4-(1R-ethylsulfonylamino)ethyl]phenyl-5-fluoro-2,4-pyrimidinediamine] | 6.1
Cc1ccc(Nc2ncc(F)c(Nc3cccc(CNS(=O)(=O)C4CC4)c3)n2)cc1S(N)(=O)=O [Compound I-34, N2-(3-aminosulfonyl-4-methyl)phenyl-N4-(3-cyclopropylsulfonylaminomethyl)phenyl-5-fluoro-2,4-pyrimidinediamine] | 5.7
Cc1ccc(Nc2ncc(F)c(Nc3ccc(CNS(=O)(=O)c4cccs4)cc3)n2)cc1S(N)(=O)=O [Compound I-37, N2-(3-aminosulfonyl-4-methyl)phenyl-5-fluoro-N4-[4-(thiophen-2-yl)sulfonylaminomethyl]phenyl-2,4-pyrimidinediamine] | 27.7
CCS(=O)(=O)NCCc1ccc(Nc2nc(Nc3cccc(S(N)(=O)=O)c3)ncc2C)cc1 [Compound I-39, N2-(3-aminosulfonyl)phenyl-N4-[4-(2-ethylsulfonylamino)ethyl]phenyl-5-methyl-2,4-pyrimidinediamine] | 3.75
CCS(=O)(=O)NCCc1ccc(Nc2nc(Nc3ccc(C)c(S(N)(=O)=O)c3)ncc2C)cc1 [Compound I-40, N2-(3-aminosulfonyl-4-methyl)phenyl-N4-[4-(2-ethylsulfonylamino)ethyl]phenyl-5-methyl-2,4-pyrimidinediamine] | 3.49
